# US6355799B1, “Substituted benzene compounds, process for their preparation, and herbicidal and defoliant compositions containing them” (ISK Americas Incorporated, priority 1997, dated 2002)
# Experiments:
# Assay type in all cases: in vivo
# [1] = test system: redroot pigweed (Amaranthus retroflexus, AMARE); experiment: Pre-emerge test, greenhouse herbicide activity screening; conditions: pre-emerge, rated 14 days after application, 0 = no damage, 100 = complete death
# Method in brief: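 Herbicidal damage is scored 0 (none) to 100 (complete plant death) two weeks after a simulated field spray. Rates span 15–1000 g ai/ha, delivered in acetone at 187 l/ha. For post-emergence treatments, plants have 2–3 leaves and the spray carries 0.25% v/v non-ionic surfactant.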
# [2] = test system: barnyardgrass (Echinochloa crus-galli, ECHCG); experiment: as above; conditions: pre-emerge, rated 14 days after application, 0 = no damage, 100 = complete death
# Method in brief: (§1)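 Compounds in acetone were track-sprayed at 187 l/ha, 15–1000 g ai/ha, onto sandy loam pots. Pre-emerge seeds were sown one day before spraying, with surface watering afterwards. Post-emerge plants were at the 2–3 leaf stage and sprayed with 0.25% v/v non-ionic surfactant. Injury was rated 0–100 at 14 days.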
# [3] = test system: common ragweed (Ambrosia artemisizfolia L., AMBEL); experiment: as above; conditions: pre-emerge, rated 14 days after application, 0 = no damage, 100 = complete death
# Method in brief: as §1
# [4] = test system: green foxtail (Setaria viridis, SETVI); experiment: as above; conditions: pre-emerge, rated 14 days after application, 0 = no damage, 100 = complete death
# Method in brief: as §1
# [5] = test system: ivyleaf morningglory (Ipomoea hederacea, IPOHE); experiment: as above; conditions: pre-emerge, rated 14 days after application, 0 = no damage, 100 = complete death
# Method in brief: as §1
# [6] = test system: johnsongrass (Sorghum halepense, SORHA); experiment: as above; conditions: pre-emerge, rated 14 days after application, 0 = no damage, 100 = complete death
# Method in brief: as §1
# [7] = test system: lambsquarters (Chenopodium album, CHEAL); experiment: as above; conditions: pre-emerge, rated 14 days after application, 0 = no damage, 100 = complete death
# Method in brief: as §1
# [8] = test system: large crabgrass (Digitaria sanguinalis, DIGSA); experiment: as above; conditions: pre-emerge, rated 14 days after application, 0 = no damage, 100 = complete death
# Method in brief: as §1
# [9] = test system: sicklepod (Cassia obtusifolia, CASOB); experiment: as above; conditions: pre-emerge, rated 14 days after application, 0 = no damage, 100 = complete death
# Method in brief: as §1
# [10] = test system: velvetleaf (Abutilon theophrasti, ABUTH); experiment: as above; conditions: pre-emerge, rated 14 days after application, 0 = no damage, 100 = complete death
# Method in brief: as §1
# [11] = test system: field corn (Zea mays L., var. Dekalb 535, CORN); experiment: Pre-emerge test, crop safety; conditions: pre-emerge, rated 14 days after application, 0 = no damage, 100 = complete death
# Method in brief: (§2)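 Rating: 0–100 visual injury, 14 DAA. Application: acetone, 187 l/ha, 15–1000 g ai/ha, flat-fan track sprayer with nozzle 40–45 cm above soil or canopy. Post-emerge runs used 0.25% v/v surfactant on 2–3 leaf plants.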
# [12] = test system: upland rice (Oryza sp., var. Tebonnet, RICE); experiment: Pre-emerge test, crop safety; conditions: pre-emerge, rated 14 days after application, 0 = no damage, 100 = complete death
# Method in brief: as §2
# [13] = test system: barnyardgrass (Echinochloa crus-galli, ECHCG); experiment: Post-emerge test, greenhouse herbicide activity screening; conditions: phytotoxicity rating 0-100 (0 no damage, 100 complete death), 14 days after application
# Method in brief: (§3)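 Fourteen days after spraying, crop and weed injury was graded visually from 0, no effect, to 100, every plant dead. Test substances were dissolved in acetone and applied at 15–1000 g ai/ha with a flat-fan nozzle. Application was either pre-emergence, one day after sowing, or post-emergence at the 2–3 leaf stage.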
# [14] = test system: common ragweed (Ambrosia artemisizfolia L., AMBEL); experiment: as above; conditions: phytotoxicity rating 0-100 (0 no damage, 100 complete death), 14 days after application
# Method in brief: as §3
# [15] = test system: ivyleaf morningglory (Ipomoea hederacea, IPOHE); experiment: as above; conditions: phytotoxicity rating 0-100 (0 no damage, 100 complete death), 14 days after application
# Method in brief: as §3
# [16] = test system: johnsongrass (Sorghum halepense, SORHA); experiment: as above; conditions: phytotoxicity rating 0-100 (0 no damage, 100 complete death), 14 days after application
# Method in brief: as §3
# [17] = test system: lambsquarters (Chenopodium album, CHEAL); experiment: as above; conditions: phytotoxicity rating 0-100 (0 no damage, 100 complete death), 14 days after application
# Method in brief: as §3
# [18] = test system: large crabgrass (Digitaria sanguinalis, DIGSA); experiment: as above; conditions: phytotoxicity rating 0-100 (0 no damage, 100 complete death), 14 days after application
# Method in brief: as §3
# [19] = test system: redroot pigweed (Amaranthus retroflexus, AMARE); experiment: as above; conditions: phytotoxicity rating 0-100 (0 no damage, 100 complete death), 14 days after application
# Method in brief: as §3
# [20] = test system: sicklepod (Cassia obtusifolia, CASOB); experiment: as above; conditions: phytotoxicity rating 0-100 (0 no damage, 100 complete death), 14 days after application
# Method in brief: as §3
# [21] = test system: velvetleaf (Abutilon theophrasti, ABUTH); experiment: as above; conditions: phytotoxicity rating 0-100 (0 no damage, 100 complete death), 14 days after application
# Method in brief: as §3
# [22] = test system: field corn (Zea mays L., var. Dekalb 535, CORN); experiment: Post-emerge test, crop safety; conditions: phytotoxicity rating 0-100 (0 no damage, 100 complete death), 14 days after application
# Method in brief: as §1
# [23] = test system: upland rice (Oryza sp., var. Tebonnet, RICE); experiment: Post-emerge test, crop safety; conditions: phytotoxicity rating 0-100 (0 no damage, 100 complete death), 14 days after application
# Method in brief: as §1
smiles,measurement,setting,value
CCc1ccc(C(=O)Nc2c(OC)c(Cl)cc(F)c2-n2c(=O)cc(C(F)(F)F)n(C)c2=O)cc1 [2-27],"Pre-emerge Herbicidal Activity AMARE (phytotoxicity rating, scale 0-100)",[1]; 63 g ai/ha,100
same,"Pre-emerge Herbicidal Activity AMARE (phytotoxicity rating, scale 0-100)",[1]; 250 g ai/ha,100
same,"Pre-emerge Herbicidal Activity ECHCG (phytotoxicity rating, scale 0-100)",[2]; 63 g ai/ha,50
same,"Pre-emerge Herbicidal Activity ECHCG (phytotoxicity rating, scale 0-100)",[2]; 250 g ai/ha,100
same,"Pre-emerge Herbicidal Activity AMBEL (phytotoxicity rating, scale 0-100)",[3]; 63 g ai/ha,100
same,"Pre-emerge Herbicidal Activity AMBEL (phytotoxicity rating, scale 0-100)",[3]; 250 g ai/ha,100
same,"Pre-emerge Herbicidal Activity SETVI (phytotoxicity rating, scale 0-100)",[4]; 63 g ai/ha,100
same,"Pre-emerge Herbicidal Activity SETVI (phytotoxicity rating, scale 0-100)",[4]; 250 g ai/ha,100
same,"Pre-emerge Herbicidal Activity IPOHE (phytotoxicity rating, scale 0-100)",[5]; 63 g ai/ha,80
same,"Pre-emerge Herbicidal Activity IPOHE (phytotoxicity rating, scale 0-100)",[5]; 250 g ai/ha,100
same,"Pre-emerge Herbicidal Activity SORHA (phytotoxicity rating, scale 0-100)",[6]; 63 g ai/ha,30
same,"Pre-emerge Herbicidal Activity SORHA (phytotoxicity rating, scale 0-100)",[6]; 250 g ai/ha,80
same,"Pre-emerge Herbicidal Activity CHEAL (phytotoxicity rating, scale 0-100)",[7]; 63 g ai/ha,100
same,"Pre-emerge Herbicidal Activity CHEAL (phytotoxicity rating, scale 0-100)",[7]; 250 g ai/ha,100
same,"Pre-emerge Herbicidal Activity DIGSA (phytotoxicity rating, scale 0-100)",[8]; 63 g ai/ha,95
same,"Pre-emerge Herbicidal Activity DIGSA (phytotoxicity rating, scale 0-100)",[8]; 250 g ai/ha,100
same,"Pre-emerge Herbicidal Activity CASOB (phytotoxicity rating, scale 0-100)",[9]; 63 g ai/ha,60
same,"Pre-emerge Herbicidal Activity CASOB (phytotoxicity rating, scale 0-100)",[9]; 250 g ai/ha,100
same,"Pre-emerge Herbicidal Activity ABUTH (phytotoxicity rating, scale 0-100)",[10]; 63 g ai/ha,100
same,"Pre-emerge Herbicidal Activity ABUTH (phytotoxicity rating, scale 0-100)",[10]; 250 g ai/ha,100
same,"Pre-emerge crop damage CORN (phytotoxicity rating, scale 0-100)",[11]; 63 g ai/ha,20
same,"Pre-emerge crop damage CORN (phytotoxicity rating, scale 0-100)",[11]; 250 g ai/ha,90
same,"Pre-emerge crop damage RICE (phytotoxicity rating, scale 0-100)",[12]; 63 g ai/ha,70
same,"Pre-emerge crop damage RICE (phytotoxicity rating, scale 0-100)",[12]; 250 g ai/ha,90
same,Post-emerge Herbicidal Activity ECHCG,[13]; 63 g ai/ha,0
same,Post-emerge Herbicidal Activity ECHCG,[13]; 250 g ai/ha,80
same,Post-emerge Herbicidal Activity AMBEL,[14]; 63 g ai/ha,60
same,Post-emerge Herbicidal Activity AMBEL,[14]; 250 g ai/ha,90
same,Post-emerge Herbicidal Activity IPOHE,[15]; 63 g ai/ha,90
same,Post-emerge Herbicidal Activity IPOHE,[15]; 250 g ai/ha,100
same,Post-emerge Herbicidal Activity SORHA,[16]; 63 g ai/ha,20
same,Post-emerge Herbicidal Activity SORHA,[16]; 250 g ai/ha,85
same,Post-emerge Herbicidal Activity CHEAL,[17]; 63 g ai/ha,90
same,Post-emerge Herbicidal Activity CHEAL,[17]; 250 g ai/ha,100
same,Post-emerge Herbicidal Activity DIGSA,[18]; 63 g ai/ha,10
same,Post-emerge Herbicidal Activity DIGSA,[18]; 250 g ai/ha,70
same,Post-emerge Herbicidal Activity AMARE,[19]; 63 g ai/ha,100
same,Post-emerge Herbicidal Activity AMARE,[19]; 250 g ai/ha,100
same,Post-emerge Herbicidal Activity CASOB,[20]; 63 g ai/ha,50
same,Post-emerge Herbicidal Activity CASOB,[20]; 250 g ai/ha,90
same,Post-emerge Herbicidal Activity ABUTH,[21]; 63 g ai/ha,100
same,Post-emerge Herbicidal Activity ABUTH,[21]; 250 g ai/ha,100
same,Post-emerge Herbicidal Activity CORN (crop damage),[22]; 63 g ai/ha,50
same,Post-emerge Herbicidal Activity CORN (crop damage),[22]; 250 g ai/ha,95
same,Post-emerge Herbicidal Activity RICE (crop damage),[23]; 63 g ai/ha,60
same,Post-emerge Herbicidal Activity RICE (crop damage),[23]; 250 g ai/ha,95
